Read-outs that look alike come from different tables or passages of the source.
How the values were obtained:
[1] = Tissue binding assay (equilibrium dialysis), plasma; assay type: in vitro ADME; conditions: mouse plasma, dialysis 4 hours at 37° C., pH 7.4
Method: [Worded in the source for another target; this target is reported under the same test.] Buffer preparation. A basic solution was prepared by dissolving 14.2 g/L Na2HPO4 and 8.77 g/L NaCl in deionized H2O. An acidic solution was prepared by dissolving 15.6 g/L NaH2PO4·2H2O and 8.77 g/L NaCl in deionized H2O. Using the acidic solution, the basic solution was then titrated to pH 7.4±0.1 and stored at 4° C. for up to 1 month. The stop solution was 100% CH3CN containing 200 ng/ml tolbutamide, 200 ng/ml labetalol and 50 ng/ml metformin.
Test method. Dialysis membrane strips were soaked in ultra-pure water at room temperature for ~1 hour. Each membrane strip containing 2 membranes was separated and soaked in 20:80 EtOH/H2O (v/v) for ~20 min, after which they were ready for use or were stored in the solution at 2-8° C. for up to 1 month. Prior to the experiment, the membrane was rinsed and soaked for 20 min in ultra-pure water. On the day of experiment, brain homogenate was thawed in a water bath at room temperature and incubated at 37° C. for 10 min before use. Test and control compounds were dissolved in DMSO to achieve 10 mM stock solutions. DMSO working solutions were prepared at 400 μM by diluting 10 μL of stock solution. To prepare the time zero (t=0) samples to be used for recovery determination, 50 μL aliquots of loading matrix were transferred in triplicate to the sample collection plate. The samples were immediately matched with opposite blank buffer to obtain a final volume of 100 μL of 1:1 matrix/dialysis buffer (v/v) in each well. 500 μL of stop solution were added to these t=0 samples. They were then stored at 2-8° C. pending further processes along with other post-dialysis samples. To load the dialysis device, an aliquot of 150 μL of the loading matrix was transferred to the donor side of each dialysis well in triplicate, and 150 μL of the dialysis buffer was loaded to the receiver side of the well. The dialysis plate was placed in a humidified incubator at 37° C. with 5% CO2 on a shaking platform that rotated slowly (about 100 rpm) for 4 hours. At the end of the dialysis, aliquots of 50 μL of samples were taken from both the buffer side and the matrix side of the dialysis device. These samples were transferred into new 96-well plates. Each sample was mixed with an equal volume of opposite blank matrix (buffer or matrix) to reach a final volume of 100 μL of 1:1 matrix/dialysis buffer (v/v) in each well. All samples were further processed by adding 500 μL of stop solution containing internal standards. The mixture was vortexed and centrifuged at 4000 rpm for about 20 min. An aliquot of 100 μL of supernatant of all the samples was then removed for LC-MS/MS analysis. The single blank samples were prepared by transferring 50 μL of blank matrix to a 96-well plate and adding 50 μL of blank PBS buffer to each well. Then the matrix-matched samples were further processed by adding 500 μL of stop solution containing internal standards, following the same sample processing method as the dialysis samples.
Data analysis. The % undiluted unbound, % undiluted bound and % recovery were calculated using the following equations: […]
where F is the analyte concentration or peak area ratio of analyte/internal standard on the buffer (receiver) side of the membrane; T is the analyte concentration or peak area ratio of analyte/internal standard on the matrix (donor) side of the membrane; To is the analyte concentration or the peak area ratio of analyte/internal standard in the loading matrix sample at time zero; and D is the dilution factor determined as 4 in this assay.

[2] = PK brain permeability after single oral gavage; assay type: in vivo, C57BL/6 mice; conditions: mice, 10 mg/kg oral, 2 hours post dose; for concentration at 2 h / Kp at 2 h: male, C57BL/6, mouse; for concentration at 2 h: po, 10 mg/kg; for Kp at 2 h: read-out: Kpu, u (unbound partitioning coefficient, Cb,u to Cp,u); for brain permeability (in words): statement on Table 3
Method: The distribution of compounds into the brain in vivo was determined in C57BL/6 mice following single oral (po) gavage administration.
Test compounds were formulated at 1 mg/mL in 0.5% HPMC E4M, 0.2% Tween 80 in water to achieve solutions or homogenous suspensions suitable for po administration. Formulations were administered to 3 male C57BL/6 mice at a volume of 10 mL/kg resulting in a dose level of 10 mg/kg. Blood samples were collected at 1 and 2 hours post dose into tubes containing K2EDTA as anticoagulant, processed to plasma and stored at −60° C. or lower until LC-MS/MS analysis. Brains were harvested 2 hours post dose, rinsed with saline, dried, weighed and homogenised under ice cold conditions. Brain homogenates were stored at −60° C. or lower until LC-MS/MS analysis.
Dose formulation concentrations were verified using a LC-UV or LC-MS/MS method. Test compound concentrations in plasma and brain homogenate were quantitatively determined using LC-MS/MS methods developed in individual matrices against calibration curves with QC samples included and acceptance criteria as per CRO SOPs. Concentrations in brain homogenate were corrected for the dilution factor used to prepare the homogenate to give concentrations in whole brain tissue.
Plasma and brain concentration versus time data were reported and plotted in excel. The brain to plasma ratio at 2 hours post dose was calculated for each animal using the following equation:
Brain: plasma=brain concentration (ng/g) at 2 h/plasma concentration (ng/ml) at 2 h As only unbound test compound is available to exert an effect on the target, unbound plasma (Cp,u) and unbound brain (Cb,u) concentrations were calculated by correcting the total concentrations for the unbound fraction in plasma (fu,p) or brain (fu,b) determined from in vitro plasma protein or brain tissue binding assays using the following equations: […]
The unbound partitioning coefficient (Kpu,u) was then calculated based on the ratio of Cb,u to Cp,u using the following equation: […]
In these studies, mice were orally administrated a 10 mg/kg dose and sacrificed 2 hours post dose and tissue samples (brain homogenate and plasma) were analyzed subsequently as described above.

[3] = brain, read-out: total brain conc.
[4] = brain, total corrected for unbound fraction in brain, read-out: free brain conc.
[5] = plasma, read-out: total plasma conc.
[6] = plasma, total corrected for unbound fraction in plasma, read-out: free plasma conc.

`O=C(N[C@H]1CC[C@H](N2CC[C@@H](F)C2)CC1)c1nc(-n2ccnc2)nn2cccc12` [Example 14, N-((1R,4r)-4-((R)-3-fluoropyrrolidin-1-yl)cyclohexyl)-2-(1H-imidazol-1-yl)pyrrolo[2,1-f][1,2,4]triazine-4-carboxamide] gave a fraction unbound at 4 h [1] of 0.24, a concentration at 2 h [2, 3] of 3320 nM and a concentration at 2 h [2, 4] of 181 nM. It also gave a Kp at 2 h ([2]; brain) of 0.19, a concentration at 2 h [2, 5] of 3930 nM and a concentration at 2 h [2, 6] of 959 nM. The “brain permeability (in words)” value [2] was “good brain permeability”.

Work on `O=C(N[C@H]1CC[C@H](NCC(F)(F)F)CC1)c1nc(-n2ccnc2)nn2cccc12` [Example 29, 2-(1H-imidazol-1-yl)-N-((1r,4r)-4-((2,2,2-trifluoroethyl)amino)cyclohexyl)pyrrolo[2,1-f][1,2,4]triazine-4-carboxamide] yielded a fraction unbound at 4 h [1] of 0.044, a concentration at 2 h [2, 3] of 4920 nM and a concentration at 2 h [2, 4] of 319 nM. The Kp at 2 h ([2]; brain) was 0.39, the concentration at 2 h [2, 5] was 19100 nM and the concentration at 2 h [2, 6] was 840 nM. For the same compound, the “brain permeability (in words)” value [2] was “good brain permeability”.

With `O=C(N[C@H]1CC[C@H](NCC(F)(F)F)CC1)c1cn2ncnc2c(-n2ccnc2)n1` [Example 20, 8-(1H-imidazol-1-yl)-N-((1r,4r)-4-((2,2,2-trifluoroethyl)amino)cyclohexyl)-[1,2,4]triazolo[1,5-a]pyrazine-6-carboxamide] the fraction unbound at 4 h [1] was 0.14, the concentration at 2 h [2, 3] was 1420 nM and the concentration at 2 h [2, 4] was 481 nM. For the same compound, the Kp at 2 h ([2]; brain) was 0.18, the concentration at 2 h [2, 5] was 17900 nM and the concentration at 2 h [2, 6] was 2630 nM. For the same compound, the “brain permeability (in words)” value [2] was “good brain permeability”.

For `O=C(N[C@H]1CC[C@H](NCC(F)(F)F)CC1)c1nc(-n2ccnc2)nc2ncccc12` [Example 4, 2-(1H-imidazol-1-yl)-N-((1r,4r)-4-((2,2,2-trifluoroethyl)amino)cyclohexyl)pyrido[2,3-d]pyrimidine-4-carboxamide], the fraction unbound at 4 h [1] was 0.4, the concentration at 2 h [2, 3] was 572 nM and the concentration at 2 h [2, 4] was 236 nM. The Kp at 2 h ([2]; brain) was 0.09, the concentration at 2 h [2, 5] was 6310 nM and the concentration at 2 h [2, 6] was 2540 nM. The “brain permeability (in words)” value [2] was “good brain permeability”.

`O=C(N[C@H]1CC[C@H](NCC(F)(F)F)CC1)c1cn2ccnc2c(-n2ccnc2)n1` [Example 19, 8-(1H-imidazol-1-yl)-N-((1r,4r)-4-((2,2,2-trifluoroethyl)amino)cyclohexyl) imidazo[1,2-a]pyrazine-6-carboxamide] gave a fraction unbound at 4 h [1] of 0.19, a concentration at 2 h [2, 3] of 864 nM and a concentration at 2 h [2, 4] of 218 nM. The Kp at 2 h ([2]; brain) was 0.22, the concentration at 2 h [2, 5] was 5010 nM and the concentration at 2 h [2, 6] was 954 nM. For the same compound, the “brain permeability (in words)” value [2] was “good brain permeability”.

Work on `O=C(N[C@H]1CC[C@H](N2CCC(F)(F)C2)CC1)c1cn2ncnc2c(-n2ccnc2)n1` [Example 48, N-((1r,4r)-4-(3,3-difluoropyrrolidin-1-yl)cyclohexyl)-8-(1H-imidazol-1-yl)-[1,2,4]triazolo[1,5-a]pyrazine-6-carboxamide] yielded a fraction unbound at 4 h [1] of 0.24, a concentration at 2 h [2, 3] of 2570 nM and a concentration at 2 h [2, 4] of 403 nM. The Kp at 2 h ([2]; brain) was 0.2, the concentration at 2 h [2, 5] was 8000 nM and the concentration at 2 h [2, 6] was 1980 nM. For the same compound, the “brain permeability (in words)” value [2] was “good brain permeability”.

Work on `O=C(N[C@H]1CC[C@H](N2CCC(F)(F)C2)CC1)c1nc(-n2ccnc2)nn2cccc12` [Example 12, N-((1r,4r)-4-(3,3-difluoropyrrolidin-1-yl)cyclohexyl)-2-(1H-imidazol-1-yl)pyrrolo[2,1-f][1,2,4]triazine-4-carboxamide] yielded a fraction unbound at 4 h [1] of 0.062, a concentration at 2 h [2, 3] of 8370 nM and a concentration at 2 h [2, 4] of 575 nM. It also gave a Kp at 2 h ([2]; brain) of 0.79, a concentration at 2 h [2, 5] of 12600 nM and a concentration at 2 h [2, 6] of 788 nM. For the same compound, the “brain permeability (in words)” value [2] was “good brain permeability”.

Work on `O=C(N[C@H]1CC[C@H](N2CCC(F)(F)C2)CC1)c1cn2ccnc2c(-n2ccnc2)n1` [Example 41, N-((1r,4r)-4-(3,3-difluoropyrrolidin-1-yl)cyclohexyl)-8-(1H-imidazol-1-yl) imidazo[1,2-a]pyrazine-6-carboxamide] yielded a fraction unbound at 4 h [1] of 0.2, a concentration at 2 h [2, 3] of 1580 nM and a concentration at 2 h [2, 4] of 241 nM. The Kp at 2 h ([2]; brain) was 0.11, the concentration at 2 h [2, 5] was 10600 nM and the concentration at 2 h [2, 6] was 2160 nM. The “brain permeability (in words)” value [2] was “good brain permeability”.

Compound `O=C(N[C@H]1CC[C@H](N2CC[C@H](F)C2)CC1)c1nc(-n2ccnc2)nn2cccc12` [Example 13, N-((1S,4r)-4-((S)-3-fluoropyrrolidin-1-yl)cyclohexyl)-2-(1H-imidazol-1-yl)pyrrolo[2,1-f][1,2,4]triazine-4-carboxamide] has a fraction unbound at 4 h [1] of 0.22, a concentration at 2 h [2, 3] of 3380 nM and a concentration at 2 h [2, 4] of 189 nM. For the same compound, the Kp at 2 h ([2]; brain) was 0.23, the concentration at 2 h [2, 5] was 3660 nM and the concentration at 2 h [2, 6] was 809 nM. The “brain permeability (in words)” value [2] was “good brain permeability”.

`O=C(N[C@H]1CC[C@H](NCC(F)(F)F)CC1)c1cn2nccc2c(-n2ccnc2)n1` [Example 21, 4-(1H-imidazol-1-yl)-N-((1r,4r)-4-((2,2,2-trifluoroethyl)amino)cyclohexyl)pyrazolo[1,5-a]pyrazine-6-carboxamide] gave a fraction unbound at 4 h [1] of 0.3, a concentration at 2 h [2, 3] of 1500 nM and a concentration at 2 h [2, 4] of 507 nM. For the same compound, the Kp at 2 h ([2]; brain) was 0.2, the concentration at 2 h [2, 5] was 8220 nM and the concentration at 2 h [2, 6] was 2470 nM. For the same compound, the “brain permeability (in words)” value [2] was “good brain permeability”.

In the case of `O=C(N[C@H]1CC[C@H](N2CC(F)(F)C2)CC1)c1cn2ncnc2c(-n2ccnc2)n1` [Example 45, N-((1r,4r)-4-(3,3-difluoroazetidin-1-yl)cyclohexyl)-8-(1H-imidazol-1-yl)-[1,2,4]triazolo[1,5-a]pyrazine-6-carboxamide], the fraction unbound at 4 h [1] is reported as 0.2, the concentration at 2 h [2, 3] is reported as 2160 nM and the concentration at 2 h [2, 4] is reported as 555 nM. The Kp at 2 h ([2]; brain) was 0.16, the concentration at 2 h [2, 5] was 9340 nM and the concentration at 2 h [2, 6] was 3490 nM. For the same compound, the “brain permeability (in words)” value [2] was “good brain permeability”.

— patent US20260224582A1, “Heterobicyclic amides as inhibitors of CD38” (Cerevance, Inc., priority 2022, published 2026)
